The values that follow come from ChEMBL document CHEMBL4393651, “Class 1 PI3K Clinical Candidates and Recent Inhibitor Design Strategies: A Medicinal Chemistry Perspective” (J Med Chem, 2019).

Data set [1] is described as follows: Inhibition of PI3K in human PBMC assessed as reduction in IFNgamma secretion.
The target in data set [2] is Phosphatidylinositol 4,5-bisphosphate 3-kinase catalytic subunit gamma isoform (Homo sapiens, UniProt P48736). Description: Inhibition of PI3Kgamma (unknown origin).
Data set [3] has as its target T1, Phosphatidylinositol 4,5-bisphosphate 3-kinase catalytic subunit beta isoform (Homo sapiens, UniProt P42338). Description: Inhibition of PI3Kbeta (unknown origin).
The next data set is filed under the species Rattus norvegicus. In words: Antiinflammatory activity in Brown Norway rat acute OVA model of Th2 driven lung inflammation assessed as protection against eosinophil recruitment. It is filed as functional.
Data set [4] can be described thus: Inhibition of PI3K in human lung parenchyma cells assessed as reduction in IFNgamma secretion.
The target of data set [5] is Phosphatidylinositol 4,5-bisphosphate 3-kinase catalytic subunit alpha isoform (Homo sapiens, UniProt P42336). In words: Inhibition of PI3Kalpha (unknown origin).
Data set [6] can be described thus: Inhibition of PI3K in human lung parenchyma cells assessed as reduction in IL2 secretion.
Data set [7] deals with T1, Phosphatidylinositol 4,5-bisphosphate 3-kinase catalytic subunit beta isoform. Description: Inhibition of N-terminal His-tagged truncated human PI3Kbeta (deltaN 1 to 108 residues) after 2 hrs in presence of [33P]ATP by BetaPlate liquid scintillation counting analysis.
Data set [8] in a line: Aqueous solubility of the compound at pH 7.4. It counts as physicochemical.
Data set [9] has as its target T2, Phosphatidylinositol 4,5-bisphosphate 3-kinase catalytic subunit delta isoform (Homo sapiens, UniProt O00329).
T2 sequence (O00329 whole entry): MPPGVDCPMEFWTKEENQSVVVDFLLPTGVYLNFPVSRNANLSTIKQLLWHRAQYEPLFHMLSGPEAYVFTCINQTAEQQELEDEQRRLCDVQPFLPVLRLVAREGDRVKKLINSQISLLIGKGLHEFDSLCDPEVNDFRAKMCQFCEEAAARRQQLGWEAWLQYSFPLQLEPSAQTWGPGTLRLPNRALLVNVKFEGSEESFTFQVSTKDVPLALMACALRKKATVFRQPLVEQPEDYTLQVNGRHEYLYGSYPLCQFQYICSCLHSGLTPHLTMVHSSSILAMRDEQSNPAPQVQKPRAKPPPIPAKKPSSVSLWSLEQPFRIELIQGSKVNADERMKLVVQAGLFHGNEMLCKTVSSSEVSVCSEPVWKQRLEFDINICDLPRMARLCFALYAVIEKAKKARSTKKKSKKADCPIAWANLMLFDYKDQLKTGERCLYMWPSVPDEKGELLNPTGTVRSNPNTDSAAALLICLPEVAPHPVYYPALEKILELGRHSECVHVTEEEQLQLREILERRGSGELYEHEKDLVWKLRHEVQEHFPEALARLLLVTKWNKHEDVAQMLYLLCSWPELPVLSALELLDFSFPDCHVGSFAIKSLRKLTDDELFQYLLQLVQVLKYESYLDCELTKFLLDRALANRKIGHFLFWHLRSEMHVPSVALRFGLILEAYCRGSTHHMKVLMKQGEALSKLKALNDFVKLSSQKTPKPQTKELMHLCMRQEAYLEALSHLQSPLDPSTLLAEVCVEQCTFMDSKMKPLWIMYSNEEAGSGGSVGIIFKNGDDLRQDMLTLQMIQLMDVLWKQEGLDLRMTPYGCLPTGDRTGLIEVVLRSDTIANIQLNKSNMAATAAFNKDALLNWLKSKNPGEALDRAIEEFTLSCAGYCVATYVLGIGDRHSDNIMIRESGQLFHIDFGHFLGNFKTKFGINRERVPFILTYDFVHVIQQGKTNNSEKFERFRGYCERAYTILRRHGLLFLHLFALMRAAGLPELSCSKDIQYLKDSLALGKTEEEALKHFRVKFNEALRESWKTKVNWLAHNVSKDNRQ
In words: Inhibition of PI3Kdelta (unknown origin).

The nature of data set [10]: Oral bioavailability in rat. It counts as ADME, organism-based. Particulars: in vivo.

Converted amounts (≈) assume the structure as drawn. A value given as a limit tells only on which side of the number the result lay.

T1 sequence (P42338 whole entry, canonical isoform): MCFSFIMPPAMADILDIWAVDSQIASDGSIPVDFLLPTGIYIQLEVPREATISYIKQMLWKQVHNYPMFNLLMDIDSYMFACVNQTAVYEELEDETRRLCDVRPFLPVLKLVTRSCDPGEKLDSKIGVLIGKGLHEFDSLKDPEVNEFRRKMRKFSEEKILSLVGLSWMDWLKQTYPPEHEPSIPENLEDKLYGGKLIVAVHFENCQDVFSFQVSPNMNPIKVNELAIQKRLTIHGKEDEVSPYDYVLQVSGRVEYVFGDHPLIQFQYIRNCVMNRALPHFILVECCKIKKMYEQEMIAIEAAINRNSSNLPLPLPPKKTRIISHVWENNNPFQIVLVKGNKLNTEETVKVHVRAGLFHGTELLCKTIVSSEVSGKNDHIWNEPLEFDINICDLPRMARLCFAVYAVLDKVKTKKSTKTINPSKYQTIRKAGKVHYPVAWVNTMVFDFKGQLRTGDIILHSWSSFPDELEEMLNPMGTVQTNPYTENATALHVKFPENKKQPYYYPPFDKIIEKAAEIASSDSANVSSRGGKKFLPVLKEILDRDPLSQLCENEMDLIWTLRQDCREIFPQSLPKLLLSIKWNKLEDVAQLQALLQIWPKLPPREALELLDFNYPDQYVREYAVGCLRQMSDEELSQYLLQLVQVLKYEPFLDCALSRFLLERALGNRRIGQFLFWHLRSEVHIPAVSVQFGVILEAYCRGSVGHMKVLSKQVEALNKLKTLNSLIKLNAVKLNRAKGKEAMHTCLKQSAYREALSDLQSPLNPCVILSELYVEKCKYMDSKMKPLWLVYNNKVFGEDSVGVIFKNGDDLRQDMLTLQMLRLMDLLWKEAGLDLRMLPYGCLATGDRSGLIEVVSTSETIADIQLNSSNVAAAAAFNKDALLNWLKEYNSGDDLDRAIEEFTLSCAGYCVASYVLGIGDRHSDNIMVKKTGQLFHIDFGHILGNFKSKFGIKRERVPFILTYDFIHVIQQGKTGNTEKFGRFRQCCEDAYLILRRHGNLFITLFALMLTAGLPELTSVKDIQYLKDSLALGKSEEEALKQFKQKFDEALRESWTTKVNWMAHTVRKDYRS
Chain of Phosphatidylinositol 4,5-bisphosphate 3-kinase catalytic subunit alpha isoform (P42336 whole entry, canonical isoform): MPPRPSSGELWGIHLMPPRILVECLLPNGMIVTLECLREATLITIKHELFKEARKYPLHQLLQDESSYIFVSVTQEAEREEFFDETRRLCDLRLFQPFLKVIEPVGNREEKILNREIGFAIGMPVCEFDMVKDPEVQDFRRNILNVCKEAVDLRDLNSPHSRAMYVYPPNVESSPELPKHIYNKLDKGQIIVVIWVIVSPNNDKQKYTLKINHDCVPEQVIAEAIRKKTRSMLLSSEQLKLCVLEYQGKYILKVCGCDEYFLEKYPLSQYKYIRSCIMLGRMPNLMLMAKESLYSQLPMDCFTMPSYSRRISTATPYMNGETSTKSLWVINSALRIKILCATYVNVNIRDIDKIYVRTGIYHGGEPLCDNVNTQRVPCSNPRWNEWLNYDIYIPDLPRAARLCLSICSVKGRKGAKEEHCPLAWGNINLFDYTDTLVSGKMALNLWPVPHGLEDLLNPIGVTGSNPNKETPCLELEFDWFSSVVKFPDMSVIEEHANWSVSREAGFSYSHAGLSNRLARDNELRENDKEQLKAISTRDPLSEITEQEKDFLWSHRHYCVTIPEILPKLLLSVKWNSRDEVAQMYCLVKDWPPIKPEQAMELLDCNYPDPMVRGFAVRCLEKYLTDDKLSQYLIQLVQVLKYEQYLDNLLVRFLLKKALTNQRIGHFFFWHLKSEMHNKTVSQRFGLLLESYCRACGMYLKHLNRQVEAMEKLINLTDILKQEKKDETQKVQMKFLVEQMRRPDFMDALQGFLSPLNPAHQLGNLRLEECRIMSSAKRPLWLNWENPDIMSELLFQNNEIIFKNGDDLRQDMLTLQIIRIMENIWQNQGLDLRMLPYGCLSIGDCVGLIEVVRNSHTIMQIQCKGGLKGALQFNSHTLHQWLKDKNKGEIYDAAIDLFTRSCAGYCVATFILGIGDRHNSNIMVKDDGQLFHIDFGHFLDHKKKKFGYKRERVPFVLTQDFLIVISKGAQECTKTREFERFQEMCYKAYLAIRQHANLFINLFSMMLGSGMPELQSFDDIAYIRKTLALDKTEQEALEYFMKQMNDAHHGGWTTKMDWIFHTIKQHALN
Chain of Phosphatidylinositol 4,5-bisphosphate 3-kinase catalytic subunit gamma isoform (P48736 whole entry, canonical isoform): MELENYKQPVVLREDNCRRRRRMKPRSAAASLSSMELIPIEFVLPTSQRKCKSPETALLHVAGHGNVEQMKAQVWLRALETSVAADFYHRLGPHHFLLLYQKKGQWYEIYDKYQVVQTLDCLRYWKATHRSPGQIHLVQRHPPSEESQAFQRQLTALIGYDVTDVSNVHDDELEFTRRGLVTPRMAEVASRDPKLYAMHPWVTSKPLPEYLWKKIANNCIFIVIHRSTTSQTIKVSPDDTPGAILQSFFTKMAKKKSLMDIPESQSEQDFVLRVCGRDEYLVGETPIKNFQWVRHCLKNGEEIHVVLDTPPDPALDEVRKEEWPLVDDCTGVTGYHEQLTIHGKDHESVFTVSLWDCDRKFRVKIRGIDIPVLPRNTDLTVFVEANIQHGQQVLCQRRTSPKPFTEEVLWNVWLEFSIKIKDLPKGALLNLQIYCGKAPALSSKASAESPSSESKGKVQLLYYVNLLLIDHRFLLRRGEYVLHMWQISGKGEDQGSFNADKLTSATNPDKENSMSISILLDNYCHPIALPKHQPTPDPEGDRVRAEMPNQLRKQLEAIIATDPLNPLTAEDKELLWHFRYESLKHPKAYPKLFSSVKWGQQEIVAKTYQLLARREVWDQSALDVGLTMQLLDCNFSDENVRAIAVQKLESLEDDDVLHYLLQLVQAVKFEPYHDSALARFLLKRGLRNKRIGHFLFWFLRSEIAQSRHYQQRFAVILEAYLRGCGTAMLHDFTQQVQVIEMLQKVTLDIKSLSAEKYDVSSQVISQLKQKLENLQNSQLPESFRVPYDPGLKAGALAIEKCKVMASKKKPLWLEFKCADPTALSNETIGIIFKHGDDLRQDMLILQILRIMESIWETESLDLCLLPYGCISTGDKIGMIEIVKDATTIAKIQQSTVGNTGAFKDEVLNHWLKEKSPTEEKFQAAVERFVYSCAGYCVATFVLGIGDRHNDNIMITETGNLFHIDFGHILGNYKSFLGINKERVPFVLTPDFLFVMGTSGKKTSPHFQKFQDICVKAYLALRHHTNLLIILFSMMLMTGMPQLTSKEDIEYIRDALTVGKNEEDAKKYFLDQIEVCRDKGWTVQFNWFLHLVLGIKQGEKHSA

The term pKi denotes the negative decadic logarithm of the Ki, by convention in mol/L. Broadly, the Ki is a measure of affinity in units of concentration, obtained from inhibition or displacement. High values mean lower affinity, low ones higher affinity. The term ED50 denotes the midpoint of the dose-response relation. Broadly, the IC50 is the point on the concentration scale where inhibition reaches its midpoint. As for `COc1ncc(-c2cc(-c3ncc(CN4C[C@@H](C)O[C@@H](C)C4)o3)c3cn[nH]c3c2)cc1NS(C)(=O)=O`, in [1], the pKi is reported as 9.2. Besides, the inhibition constant (Ki) is 501 nM in data set [2], 631 nM in [3] and 501 nM in [5]. Moreover, the ED50 in the data set listed under Rattus norvegicus came out at 0.035 mg/kg. Further, the values for the IC50 in [4] and in data set [6] were 2 nM and 3.16 nM, respectively.
`O=C(NC1=Nc2ccccc2C2=NCCN12)c1cccnc1`: the IC50 in data set [7] is 1 nM.
By solubility is commonly meant the concentration that dissolves in the medium under given conditions. In turn, `Cc1nnc2n1[C@@H]1CCN(Cc3cc4nc(-c5cccc6[nH]ccc56)nc(N5CCOCC5)c4s3)C[C@@H]1CC2` had a solubility in data set [8] of 20 µg/mL (≈ 37 µM). This compound also showed an IC50 in data set [9] of 0.794 nM.
Consider `Cc1nc(C(=O)Nc2cc(-c3cnc(Cl)c(NS(=O)(=O)c4ccccc4)c3)cc3[nH]ncc23)cs1`, for which the IC50 in data set [2] was 50.1 nM; in [3], 1000 nM; in data set [5], 316 nM; in data set [9], 2 nM.
By bioavailability is commonly meant the share of a dose that reaches the circulation, judged against a reference dose that is usually intravenous. `CC(C)N1CCN(Cc2cnc(-c3cc(-c4cccc5[nH]ccc45)cc4[nH]ncc34)o2)CC1` [NEMIRALISIB]: the bioavailability in [10] is under 2%.
